Assay results taken from patent US20250179103A1, “6-OXODECAHYDROPYRROLO[1,2-A][1,5]DIAZOCINE AND 6-OXODECAHYDRO-4H-PYRROLO[2,1-D][1,5]THIAZOCINE DERIVATIVES AS STAT3 AND STAT6 MODULATORS FOR THE TREATMENT OF CANCER AND INFLAMMATORY CONDITIONS” (Recludix Pharma, Inc., priority 2022, published 2025).
pIC50: −log10 of the molar value.

Legend:
[1] = test system: pY641-STAT6 in Peripheral Blood Mononuclear Cells (PBMC); test: MSD-pSTAT-PBMC Assay (pSTAT6, IL-4 stimulated); format: cell-based, Human; conditions: Homo sapiens, compound 3 hrs, then 1 ng/mL IL-4 for 10 min
Procedure, shortened: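 Phospho-STAT readout used MSD electrochemiluminescence with total STAT3 or STAT6 capture in lysates of cryopreserved human PBMCs. Cells had 3 h compound exposure before a 10 min cytokine pulse: IL-6 10 ng/mL for pSTAT3, IL-4 1 ng/mL for pSTAT6. IC50 came from background-subtracted, DMSO-normalised signal, with categories A≤100 nM up to D>3 μM.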

[2] = test system: pY705-STAT3 in Peripheral Blood Mononuclear Cells (PBMC); test: MSD-pSTAT-PBMC Assay (pSTAT3, IL-6 stimulated); format: cell-based, Human; conditions: Homo sapiens, compound 3 hrs, then 10 ng/mL IL-6 for 10 min
From the text: Cryopreserved Peripheral Blood Mononuclear Cells (PBMC) are from AllCells. Recombinant Human IL-4 and IL-6 are from Peprotech. Mouse monoclonal anti-STAT3 antibody, rabbit monoclonal anti-pY705-STAT3 antibody, rabbit monoclonal Anti-pY641-STAT6 antibody, and lysis buffer are from Cell Signaling Technology (CST). Mouse monoclonal anti-STAT6 antibody is from BioLegend. Assay plates, blocker, and anti-rabbit secondary antibody are from Meso Scale Discovery (MSD).
Cryopreserved PBMCs were thawed out and allowed to recover overnight in IMDM+10% heat-inactivated FBS prior to plating 50,000 (STAT3) or 25,000 (STAT6) cells per well in 96-well U-bottom tissue culture plates. Cells were treated with compound for 3 hrs, then stimulated with 10 ng/mL IL-6 (STAT3) or 1 ng/mL IL-4 (STAT6) for 10 min. Cells were then spun down and washed with ice-cold PBS prior to lysing the cell pellet with 1× lysis buffer (CST) with 1×HALT protease and phosphatase inhibitor cocktail (Thermo). Lysates were transferred to and incubated overnight at 4° C. with shaking in QuickPlex 96-well high bind assay plates (MSD) pre-coated overnight with 30 μL per well of 0.6 μg/mL mouse monoclonal anti-STAT3 antibody (STAT3) or 2 μg/mL mouse monoclonal anti-STAT6 antibody (STAT6) in 1×PBS, and pre-blocked for 1 hour with 3% Blocker-A (MSD). Captured protein in the assay plates were then washed and probed with 25 μL per well of 0.25 μg/ml rabbit monoclonal anti-pY705-STAT3 antibody (STAT3) or […] rabbit monoclonal Anti-pY641-STAT6 antibody (STAT6) in 1% Blocker-A for 1 hour at room temperature with shaking, then washed and probed with 25 ul per well of 1 ug/ml Sulfo-TAG Labeled Goat Anti-Rabbit Antibody (MSD) in 1% Blocker-A for 1 hour at room temperature with shaking. Assay plates were then washed and 150 μL of 1× Read Buffer-T (MSD) was added to each well prior to reading on an SQ120 MSD Plate Reader. Assay signal from each sample was subtracted by the signal from unstimulated control wells and normalized to DMSO control wells. IC50 values were calculated using Graph Pad Prism Dose-Response Nonlinear Regression with variable slope. For both pSTAT3 and pSTAT6 A=≤100 nM; B=>100-1000 nM; C=>1000-3000 nM; and D=>3 μM.

Compound	pIC50 [1]	pIC50 [2]
CC(=O)N1CC[C@H]2CC[C@@H](C(=O)N(C)c3ccc(OCCN(C)C)cc3)N2C(=O)[C@@H](NC(=O)c2cc3cc(C(F)(F)P(=O)(OCOC(=O)C(C)(C)C)OCOC(=O)C(C)(C)C)ccc3s2)C1 [Compound 327, ((((2-(((5S,8S, 10aR)-3-acetyl-8-((4-(2-(dimethyl-amino)ethoxy)phenyl) (methyl)carbamoyl)-6-oxodecahydro-pyrrolo[1,2-a][1,5]diazocin-5-yl)carbamoyl)benzo[b]thiophen-5-yl)difluoro-methyl)phos-phoryl)bis(oxy)) bis(methylene) bis(2,2-dimethylpro-panoate)]	< 5.52	< 5.52
CCN1CC[C@H]2CC[C@@H](C(=O)N3C[C@@H](C#N)[C@H](c4ccccc4)C3)N2C(=O)[C@@H](NC(=O)c2cc3cc(C(F)(F)P(=O)(OCOC(=O)C(C)(C)C)OCOC(=O)C(C)(C)C)ccc3s2)C1 (single isomer, unassigned) [Compound 281, ((((2-(((5S,8S, 10aR)-8-((3S,4R or 3R,4S)-3-cyano-4-phenyl-pyrrolidine-1-carbonyl)-3-ethyl-6-oxodecahydro-pyrrolo[1,2-a][1,5]diazocin-5-yl)carbamoyl)benzo[b]thiophen-5-yl)difluoro-methyl)phos-phoryl)bis(oxy)) bis(methylene) bis(2,2-dimethyl-propanoate)]	≥ 7.00	≥ 7.00
CC(=O)N1CC[C@H]2CC[C@@H](C(=O)Nc3ccc(-c4ccccc4)cc3)N2C(=O)[C@@H](NC(=O)/C=C/c2ccc(C(F)(F)P(=O)(OCOC(=O)C(C)(C)C)OCOC(=O)C(C)(C)C)cc2)C1 [Compound 324, ((((4-((E)-3-(((5S,8S, 10aR)-8-([1,1′-biphenyl]-4-ylcarbamoyl)-3-acetyl-6-oxodecahydro-pyrrolo[1,2-a][1,5]diazocin-5-yl)amino)-3-oxoprop-1-en-1-yl)phenyl)difluoro-methyl)phosphoryl)bis(oxy))bis (methylene) bis(2,2-dimethylpro-panoate)]	< 5.52	< 5.52
CC(=O)N1CC[C@H]2CC[C@@H](C(=O)Nc3cnc(S(C)(=O)=O)nc3)N2C(=O)[C@@H](NC(=O)c2cc3cc(C(F)(F)P(=O)(OCOC(=O)C(C)(C)C)OCOC(=O)C(C)(C)C)ccc3s2)C1 [Compound 309, ((((2-(((5S, 8S,10aR)-3-acetyl-8-((2-(methyl-sulfonyl)pyrimidin-5-yl)carbamoyl)-6-oxodecahydro-pyrrolo[1,2-a][1,5]diazocin-5-yl)carbamoyl)benzo[b]thiophen-5-yl)difluoro-methyl)phos-phoryl)bis(oxy)) bis(methylene) bis(2,2-dimethylpro-panoate)]	5.52 to 6.00	< 5.52
CCOP(=O)(OCC)C(F)(F)c1ccc2sc(C(=O)N[C@H]3CN(C(C)=O)CC[C@H]4CC[C@@H](C(=O)N(C)c5ccccc5)N4C3=O)cc2c1 [Compound 317, diethyl ((2-(((5S,8S, 10aR)-3-acetyl-8-(methyl (phenyl)carbamoyl)-6-oxodecahydro-pyrrolo[1,2-a][1,5]diazocin-5-yl)carbamoyl)benzo[b]thiophen-5-yl)difluoro-methyl)phos-phonate]	< 5.52	< 5.52
CC(C)CC(=O)SCCOP(=O)(OCCSC(=O)CC(C)C)C(F)(F)c1ccc2ccc(C(=O)N[C@H]3CN(CC(F)F)CC[C@H]4CC[C@@H](C(=O)N5C[C@H](c6cc(F)cc(F)c6)[C@@H](C#N)C5)N4C3=O)cc2c1 (relative stereo) [Compound 341, S,S′-(((((7-(((5S,8S,10aR)-8-((rel-trans)-3-cyano-4-(3,5-difluorophenyl)pyrrolidine-1-carbonyl)-3-(2,2-difluoroethyl)-6-oxodecahydropyrrolo[1,2-a][1,5]diazocin-5-yl)carbamoyl)naphthalen-2-yl)difluoromethyl)phosphoryl)bis(oxy))bis(ethane-2,1-diyl))bis(3-methylbutanethioate)]	5.52 to 6.00	< 5.52
CC(C)(C)C(=O)OCOP(=O)(OCOC(=O)C(C)(C)C)C(F)(F)c1ccc2sc(C(=O)N[C@H]3CN(CC(F)F)CC[C@H]4CC[C@@H](C(=O)N5C[C@@H](C#N)[C@H](c6ccccc6)C5)N4C3=O)cc2c1 (single isomer, unassigned) [Compound 348, ((((2-(((5S,8S,10aR)-8-((3S,4R or 3R,4S)-3-cyano-4-phenylpyrrolidine-1-carbonyl)-3-(2,2-difluoroethyl)-6-oxodecahydropyrrolo[1,2-a][1,5]diazocin-5-yl)carbamoyl)benzo[b]thiophen-5-yl)difluoromethyl)phosphoryl)bis (oxy)) bis(methylene) bis(2,2-dimethylpropanoate)]	≥ 7.00	≥ 7.00
CC(=O)N1CC[C@H]2CC[C@@H](C(=O)N(C)c3ccccc3)N2C(=O)[C@@H](NC(=O)c2cc3cc(C(F)P(=O)(OCOC(=O)C(C)(C)C)OCOC(=O)C(C)(C)C)ccc3s2)C1 (stereo partly drawn) [Compound 295, ((((2-(((5S,8S, 10aR)-3-acetyl-8-(methyl (phenyl)carbamoyl)-6-oxodecahydro-pyrrolo[1,2-a][1,5]diazocin-5-yl)carbamoyl)benzo[b]thiophen-5-yl)fluoro-methyl)phos-phoryl)bis(oxy))bis (methylene) bis(2,2-dimethylpro-panoate)]	6.00 to 7.00	6.00 to 7.00
CCN1CC[C@H]2CC[C@@H](C(=O)N3CC(C(=O)N4CCOCC4)C3)N2C(=O)[C@@H](NC(=O)c2cc3cc(C(F)(F)P(=O)(OCOC(=O)C(C)(C)C)OCOC(=O)C(C)(C)C)ccc3s2)C1 [Compound 353, ((((2-(((5S,8S,10aR)-3-ethyl-8-(3-(morpholine-4-carbonyl)azetidine-1-carbonyl)-6-oxodecahydropyrrolo[1,2-a][1,5]diazocin-5-yl)carbamoyl)benzo[b]thiophen-5-yl)difluoromethyl)phosphoryl)bis(oxy)) bis(methylene) bis(2,2-dimethylpropanoate)]	< 5.52	≥ 7.00
CC(C)(C)C(=O)SCCOP(=O)(OCCSC(=O)C(C)(C)C)C(F)(F)c1ccc2ccc(C(=O)N[C@H]3CN(CC(F)F)CC[C@H]4CC[C@@H](C(=O)N5CC[C@H](c6ccccc6)[C@@H](C#N)C5)N4C3=O)cc2c1 (relative stereo) [Compound 340, S,S′-(((((7-(((5S,8S,10aR)-8-((rel-trans)-3-cyano-4-phenylpiperidine-1-carbonyl)-3-(2,2-difluoroethyl)-6-oxodecahydropyrrolo[1,2-a][1,5]diazocin-5-yl)carbamoyl)naphthalen-2-yl)difluoromethyl)phosphoryl)bis(oxy))bis (ethane-2,1-diyl))bis(2,2-dimethylpropanethioate)]	< 5.52	< 5.52
CCCC(=O)SCCOP(=O)(OCCSC(=O)CCC)C(F)(F)c1ccc2ccc(C(=O)N[C@H]3CN(C(=O)c4n[nH]c5ccc(C)cc45)CC[C@H]4CC[C@@H](C(=O)N5CC(c6ccccc6)[C@@H](C#N)C5)N4C3=O)cc2c1 (relative stereo) [Compound 336, S,S′-(((((7-(((5S,8S,10aR)-8-((rel-trans)-3-cyano-4-phenylpyrrolidine-1-carbonyl)-3-(5-methyl-1H-indazole-3-carbonyl)-6-oxodecahydropyrrolo[1,2-a][1,5]diazocin-5-yl)carbamoyl)naphthalen-2-yl)difluoromethyl)phosphoryl)bis(oxy))bis(ethane-2,1-diyl)) dibutanethioate]	≥ 7.00	5.52 to 6.00
CC(C)OC(=O)OCOP(=O)(Cc1ccc2sc(C(=O)N[C@H]3CN(Cc4ccn5ccnc5c4)CC[C@H]4CC[C@@H](C(=O)N5CC(c6cccnc6)C5)N4C3=O)cc2c1)OCOC(=O)OC(C)C [Compound 338, ((((2-(((5S,8S,10aR)-3-(imidazo[1,2-a]pyridin-7-ylmethyl)-6-oxo-8-(3-(pyridin-3-yl)azetidine-1-carbonyl)decahydropyrrolo[1,2-a][1,5]diazocin-5-yl)carbamoyl)benzo[b]thiophen-5-yl)methyl)phosphoryl)bis (oxy))bis(methylene)diisopropylbis(carbonate)]		6.00 to 7.00
